Here are results for 4 compounds from patent US6417362B1, “Nitrogenous heterocyclic compounds and hyperlipemia remedy containing the same” (Meiji Seika Kaisha, Ltd., priority 1997, dated 2002).

Series [1] has as its system biosynthesis of triglycerides in cell strain HepG2 derived from human hepatoma. Description: Inhibitory activity against biosynthesis of triglycerides (14C-acetic acid incorporation). It counts as cell-based. The conditions noted are these: HepG2 cells, test compound at final concentration of 3 μM. The method, then:
Inhibitory activity against biosynthesis of triglycerides The inhibitory activity of the compounds according to the present invention against the biosynthesis of triglycerides were studied using cell strain HepG2 derived from human hepatoma.
The test was carried out by the method of Nagata et al. (Biochem. Pharmacol., 40, 843 (1990)) and the method of Furukawa et al. (J. Biol. Chem., 267, 22630 (1992)) which had been partly modified. Specifically, HepG2 cells were cultivated in a Dulbecco's modified Eagle's medium (DMEM), containing 10% fetal calf serum (FCS), 100 units/ml penicillin, and 100 μg/ml streptomycin, placed in 96-well plates. Thereafter, the medium was replaced with DMEM containing 1% bovine serum albumin, and the test compound was simultaneously added to a final concentration of 3 μM or was not added, followed by cultivation. Three hr after the replacement of the medium, ^14C-acetic acid was added to a final concentration of 1 mM, followed by cultivation for additional 4 hr. The cells were washed with a phosphate buffer (pH 7.5) containing 150 mM sodium chloride. Thereafter, lipid within the cells was extracted with n-butanol. After the extraction, the extract was evaporated to dryness under a nitrogen gas stream. The residue was dissolved in a small amount of chloroform. The solution was developed in thin-layer chromatography (developing solvent petroleum ether:diethyl ether:acetic acid=90:15:3), and a ^14C-triglyceride fraction was isolated. The amount of […] produced was then quantitatively determined with a liquid scintillation counter (Beckman, LS-6500).
The inhibition (%) of the biosynthesis of triglycerides was calculated by the following equation:
Inhibition (%) of biosynthesis of triglycerides={1-(amount of ^14C-triglycerides produced in the presence of drug)/(amount of ^14C-triglycerides produced in the absence of drug)}×100.

For series [2], the system named is secretion of apolipoprotein B in cell strain HepG2 derived from hepatoma. Description: Inhibitory activity against secretion of apolipoprotein B (sandwich ELISA). The series is classed as cell-based. As to conditions: Homo sapiens; HepG2 cells, test compound at final concentration of 3 μM. The protocol: Inhibitory activity against secretion of apolipoprotein B
The inhibitory activity of the compounds according to the present invention against the secretion of apolipoprotein B was studied using cell strain HepG2 derived from hepatoma.
The test was carried out by the method of Nagata et al. (Biochem. Pharmacol., 40, 843 (1990)) and the method of Furukawa et al. (J. Biol. Chem., 267, 22630 (1992)) which had been partly modified. Specifically, HepG2 cells were cultivated in a Dulbecco's modified Eagle's medium (DMEM), containing 10% fetal calf serum (FCS), 100 units/ml penicillin, and 100 μg/ml streptomycin, placed in 96-well plates. Thereafter, the medium was replaced with DMEM containing 1% bovine serum albumin, and the test compound was simultaneously added to a final concentration of 3 μM or not added, followed by cultivation. Three hr after the replacement of the medium, acetic acid was added to a final concentration of 1 mM, followed by cultivation for additional 4 hr. The amount of apolipoprotein B secreted in the supernatant of the culture thus obtained was quantitatively determined by the sandwich ELISA method. In this case, goat anti-human apolipoprotein B polyclonal antibody (CHEMICON) was used as a primary antibody, and mouse anti-human apolipoprotein B monoclonal antibody peroxidase conjugate (BIOSYS) was used as a secondary antibody.
The inhibition (%) against the secretion of apolipoprotein B was calculated by the following equation:
Inhibition (%) of secretion of apolipoprotein B={1-(amount of apolipoprotein B secreted in the presence of drug)/(amount of apolipoprotein B secreted in the absence of drug)}×100

Another series concerns ddY mice (male). Description: Acute toxicity test in mice. The series is classed as in vivo. As to conditions: orally administered 200 mg/kg, observed for 8 days. The method, then: (§1) An acute toxicity test was carried out using mice and rats by a conventional method.
The subject of another series is wistar rats (male). The series can be described thus: Acute toxicity test in rats. The series is classed as in vivo. As to conditions: orally administered 200 mg/kg, observed for 8 days. The method, then: as §1

Turning to `CC(C)=CCC/C(C)=C/CC/C(C)=C/CN1CCN(c2ccc3c(c2)C(=O)N(C2CCCCC2)C3)CC1` [Example 5, 2-Cyclohexyl-2,3-dihydro-6-[4-(trans,trans-farnesyl)piperazin-1-yl]-1H-isoindol-1-one], the inhibition at 3 µM in series [1] was found to be 90%; in series [2] it was 56%.

Take `CC(C)(C)OC(=O)N1CCN(c2ccc3c(c2)C(=O)N(C2CCCCC2)C3)CC1` [Example 30, 6-[4-(t-Butoxycarbonyl)piperazin-1-yl]-2-cyclo-hexyl-2,3-dihydro-1H-isoindol-1-one]: the inhibition at 3 µM worked out at 89% in series [1] and 68% in series [2].

For `O=C1c2cc(N3CCN(CCC(c4ccccc4)c4ccccc4)CC3)ccc2CN1C1CCCCC1` [Example 8, 2-Cyclohexyl-2,3-dihydro-6-[4-(3,3-diphenyl-1-propyl)piperazin-1-yl]-1H-isoindol-1-one], the inhibition at 3 µM in series [1] turned out to be 79%; in series [2], 70%. For the same compound, the “change in general states, such as reduction in body weight” value in the series with ddY mice (male) is reported as “any change in general states, such as a reduction in body weight, did not occur”; with wistar rats (male), “any change in general states, such as a reduction in body weight, did not occur”. For the same compound, the “survival in acute toxicity test” value with ddY mice (male) and in the series on wistar rats (male) was “survived” each time.

Turning to `O=C1c2cc(N3CCN(CCC(c4ccccc4)c4ccccc4)CC3)ccc2CCN1C1CCCCC1` [Example 68, 2-Cyclohexyl-7-[4-(3,3-diphenyl-1-propyl)-piperazin-1-yl]-3,4-dihydro-2H-isoquinolin-1-one], the inhibition at 3 µM was 64% in series [1] and 61% in series [2].

In general, inhibition refers to the relative decrease from the control value, in per cent. A high value points to a strong effect.
